Patent publication US4559339A, “Indol-3-yl-quinazolino-1,4-benzodiazepin-5,13-diones” (Merck & Co., Inc., priority 1985, dated 1985)
Read-outs that look alike come from different tables or passages of the source.

How the values were obtained:
CCK receptor (brain) = molecular target: T1, CCK receptor (brain) (Cavia porcellus, UniProt H0VZC5); test: CCK receptor binding (brain) method; design: species or system Hartley guinea pig; conditions: guinea pig cerebral cortex, 25° C., 2 hours; read-out: ^125 I-CCK Brain IC50
T1 construct: The cerebral cortex is dissected and used as a receptor source; from tissue; host or cells: cerebral cortex of male Hartley guinea pig, membrane homogenate
T1 sequence (H0VZC5 1-426): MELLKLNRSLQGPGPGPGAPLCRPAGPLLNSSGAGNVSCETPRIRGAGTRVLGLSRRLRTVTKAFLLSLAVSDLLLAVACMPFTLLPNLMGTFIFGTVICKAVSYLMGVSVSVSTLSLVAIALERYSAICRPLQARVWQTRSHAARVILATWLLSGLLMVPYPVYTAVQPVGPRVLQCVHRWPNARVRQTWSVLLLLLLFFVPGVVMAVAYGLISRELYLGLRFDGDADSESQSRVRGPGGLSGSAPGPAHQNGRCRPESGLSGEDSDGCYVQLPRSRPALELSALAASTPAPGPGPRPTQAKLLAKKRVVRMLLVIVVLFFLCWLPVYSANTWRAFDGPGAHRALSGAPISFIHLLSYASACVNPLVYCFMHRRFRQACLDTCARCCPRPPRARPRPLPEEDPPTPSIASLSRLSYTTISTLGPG
Experimental: (§1) Screening of the novel compounds according to the present invention to determine biological activity and obtain an IC50 value for them, in order to identify significant CCK-antagonism, may be accomplished using an ^125 I-CCK receptor binding assay and in vitro isolated tissue preparations. These tests involve the following:
CCK receptor binding (brain) method
CCK-33 is radiolabeled and the binding is performed according to the description for the pancreas method, with modifications according to Saito et al., J. Neurochem., 37, 483-490, 1981.
Male Hartley guinea pigs (300-500 g) are sacrificed by decapitation, and the brains are removed and placed in ice-cold 50 mM Tris HCl (Trizma-7.4) [pH 7.4 at 25° C.]. The cerebral cortex is dissected and used as a receptor source and each gram of fresh guinea pig brain tissue is homogenized in 10 ml of Tris/Trizma buffer with a Brinkman polytron PT-10. The homogenates are centrifuged at 42,000 g for 15 minutes, then the resulting pellets are resuspended in 80 volumes of binding assay buffer (10 mM N-2-hydroxy-ethylpiperazine-N'-2-ethanesulfonic acid (HEPES), 5 mM MgCl2, 1 mM ethylene glycol-bis-(β-amino-ethyl-ether-N,N'-tetraacetic acid (EGTA), 0.4% BSA and 0.25 mg/ml bacitracin, pH 6.5).
The remainder of the binding assay method is as described for the pancreas method, except that the reaction mixtures are incubated at 25° C. for 2 hours before centrifugation.

CCK receptor (pancreas) [1] = molecular target: T2, CCK receptor (pancreas) (Rattus norvegicus, UniProt P30551); test: CCK receptor binding (pancreas) method; design: species or system Sprague-Dawley rat; conditions: rat pancreas membranes, 37° C., 30 minutes; read-out: I-CCK-8 Pancreas IC50
T2 construct: The whole pancreas of a male Sprague-Dawley rat; from tissue; host or cells: whole pancreas of male Sprague-Dawley rat, washed membrane homogenate
T2 sequence (P30551 1-444): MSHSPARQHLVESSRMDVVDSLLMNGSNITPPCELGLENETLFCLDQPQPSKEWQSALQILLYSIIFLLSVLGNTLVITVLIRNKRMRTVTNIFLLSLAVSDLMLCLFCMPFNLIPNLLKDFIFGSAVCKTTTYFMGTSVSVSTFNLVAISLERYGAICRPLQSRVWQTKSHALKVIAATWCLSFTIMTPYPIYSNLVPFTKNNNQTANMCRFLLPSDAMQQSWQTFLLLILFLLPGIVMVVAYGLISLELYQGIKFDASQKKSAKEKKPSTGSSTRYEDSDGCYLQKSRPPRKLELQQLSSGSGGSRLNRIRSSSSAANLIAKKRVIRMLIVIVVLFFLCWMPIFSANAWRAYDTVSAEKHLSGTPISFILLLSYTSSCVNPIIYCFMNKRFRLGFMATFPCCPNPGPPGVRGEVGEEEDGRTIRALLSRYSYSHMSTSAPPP
Experimental: as §1
CCK receptor binding (pancreas) method
[…] (J. Biol. Chem., 254, 9349-9351, 1979). Receptor binding is performed according to Innis and Snyder (Proc. Natl. Acad. Sci., 77, 6917-6921, 1980), with the minor modification of adding the additional protease inhibitors, phenyl-methane sulfonyl fluoride and o-phenanthroline, which have no effect on the ^125 I-CCK receptor binding assay.
The whole pancreas of a male Sprague-Dawley rat (200-350 g), which has been sacrificed by decapitation, is dissected free of fat tissue and homogenized in 20 volumes of ice-cold 50 mM Tris HCl (pH 7.7 at 25° C.) with a Brinkman Polytron PT-10. The homogenates are centrifuged at 48,000 g for 10 minutes, then the resulting pellets are resuspended in Tris Buffer, centrifuged as above, and resuspended in 200 volumes of binding assay buffer (50 mM Tris HCl, pH 7.7 at 25° C., 5 mM dithiothreitol, 0.1 mM bacitracin, 1.2 mM phenylmethane sulfonyl fluoride and 0.5 mM o-phenanthroline).
For the binding assay, 25 μl of buffer (for total binding), or unlabeled CCK-8 sulfate sufficient to give a final concentration of 1 μM of CCK-8 (for nonspecific binding), or the compounds of the formula of the compounds according to the instant invention ([…]), are added to 450 μl of the membrane suspensions in microfuge tubes. All assays are run in duplicate or triplicate, and the reaction mixtures are incubated at 37° C. for 30 minutes and centrifuged in a Beckman Microfuge (4 minutes) immediately after adding 1 ml of ice-cold incubation buffer. The supernatant is aspirated and discarded, and the pellets are counted with a Beckman Gamma 5000.

[2] = test system: cholecystokinins in the gut; conditions: prior compound; cited from earlier work
CCK receptor (pancreas) [3] = molecular target: T2, CCK receptor (pancreas); conditions: prior compound, U.S. Pat. No. 4,530,790; cited from earlier work
CCK receptor = conditions: structure-function studies; cited from earlier work

Structure (SMILES)	IC50 (CCK receptor (brain)) [µM]	IC50 (CCK receptor (pancreas) [1]) [µM]	selectivity in inhibiting the function of cholecystokinins [2]	IC50 (CCK receptor (pancreas) [3]) [µM]	CCK-receptor antagonist potency within derivatives of cyclic nucleotides (CCK receptor)
O=C1N[C@@H](Cc2c[nH]c3ccccc23)C2Nc3ccccc3C(=O)N2c2ccccc21 (some centres unmarked) [Example 1, 7,7A-dihydro-7-(1H-indol-3-yl)methylquinazolino(3,2-B)-1,4-benzodiazepin-5,13-(6H,9H)-dione monohydrate]	> 100	12	–	–	–
CC(C)C[C@H](NC(=O)OC(C)(C)C)C(=O)n1cc(C[C@@H]2NC(=O)c3ccccc3-n3c2nc2ccccc2c3=O)c2ccccc21 [Example 3, 7-[(1-[2(S)-((1,1-dimethylethoxy)-carbonyl)amino-4-methylpentanoyl]-1H-indol-3-yl)methyl]quinazolino(3,2-A)-1,4-benzodiazepin-5,13-(6H,7H)-dione sesquihydrate]	> 100	> 100	–	–	–
CC(C)C[C@H](NC(=O)OC(C)(C)C)C(=O)N1CC(C[C@@H]2NC(=O)c3ccccc3N3C(=O)c4ccccc4NC23)c2ccccc21 (stereo partly drawn) [Example 5, 7-[(1-[2(S)-((1,1-dimethylethoxy)carbonyl)amino-4-methylpentanoyl]-2,3-dihydro-1H-indol-3-yl)methyl]quinazolino(3,2-A)-1,4-benzodiazepin-5,13-(5H,7H)-dione hydrate]	> 100	19.2	–	–	–
O=C1N[C@@H](Cc2c[nH]c3ccccc23)c2nc3ccccc3c(=O)n2-c2ccccc21 [7β-[(1H-indol-3-yl)methyl]quinazolino(3,2-A) (1,4)benzodiazepin-5,13(6H,7H)dione]	–	–	selective in inhibiting the function of cholecystokinins in the gut	26	–
O=C1N[C@@H](CC2CNc3ccccc32)c2nc3ccccc3c(=O)n2-c2ccccc21 (some centres unmarked) [Example 2, 7-[(2,3-dihydro-1H-indol-3-yl)methyl]-quinazolino(3,2-A)-1,4-benzodiazepin-5,13-(6H,7H)-dione hemihydrate]	> 100	27	–	–	–
CCCC(=O)Nc1nc2c(ncn2[C@@H]2O[C@@H]3COP(=O)(O)O[C@H]3[C@H]2OC(=O)CCC)c(=O)[nH]1 [dibutyryl cyclic GMP]	–	–	–	–	most potent
CC(C)C[C@H](NC(=O)OC(C)(C)C)C(=O)N1CC(C[C@@H]2NC(=O)c3ccccc3-n3c2nc2ccccc2c3=O)c2ccccc21 (stereo partly drawn) [Example 4, 7-[(1-[2(S)-((1,1-dimethylethoxy)carbonyl)amino-4-methylpentanoyl]-2,3-dihydro-1H-indol-3-yl)methyl]quinazolino(3,2-A)-1,4-benzodiazepin-5,13-(6H,7H)-dione hemihydrate]	> 100	3.4	–	–	–

Further lines, with some results ahead:

IC50 (CCK receptor (brain)) [µM]	IC50 (CCK receptor (pancreas) [1]) [µM]	Structure (SMILES)	selectivity in inhibiting the function of cholecystokinins [2]	IC50 (CCK receptor (pancreas) [3]) [µM]	CCK-receptor antagonist potency within derivatives of cyclic nucleotides (CCK receptor)
> 100	> 100	CC(C)C[C@@H](NC(=O)OC(C)(C)C)C(=O)N1CC(C[C@@H]2NC(=O)c3ccccc3-n3c2nc2ccccc2c3=O)c2ccccc21 (single isomer, unassigned; isomer 2) [Example 7]	–	–	–
> 100	16.5	CC(C)C[C@@H](NC(=O)OC(C)(C)C)C(=O)N1CC(C[C@@H]2NC(=O)c3ccccc3-n3c2nc2ccccc2c3=O)c2ccccc21 (single isomer, unassigned; isomer 1) [Example 6]	–	–	–
100	34	CC(C)C[C@@H](NC(=O)OC(C)(C)C)C(=O)N1CC(C[C@@H]2NC(=O)c3ccccc3N3C(=O)c4ccccc4NC23)c2ccccc21 (single isomer, unassigned; isomer 2) [Example 9]	–	–	–
> 100	> 100	CC(C)C[C@H](NC(=O)OCc1ccccc1)C(=O)n1cc(C[C@@H]2NC(=O)c3ccccc3-n3c2nc2ccccc2c3=O)c2ccccc21 [Example 10, 7-[(1-[2(S)-phenylmethoxycarbonylamino-4-methylpentanoyl]-1H-indol-3-yl)methyl]quinazolino-(3,2-B)-1,4-benzodiazepin-5,13-(6H,7H)-dione]	–	–	–
15	49	CC(C)C[C@@H](NC(=O)OC(C)(C)C)C(=O)N1CC(C[C@@H]2NC(=O)c3ccccc3N3C(=O)c4ccccc4NC23)c2ccccc21 (single isomer, unassigned; isomer 1) [Example 8]	–	–	–
